Values quoted from earlier work, collected in PMC3946937 (Pharmaceutical research, 2013).
Where two headings read alike, the source gives them in different places.

Legend:
Mtb [1] = tested on: Mtb
Mtb [2] = details: read-out: Mtb Activity in vitro: IC90
Mtb [3] = tested on: Mtb; remark: listed apart in the source

SMILES: CCCCC1C(=O)N(c2ccccc2)N(c2ccc(O)cc2)C1=O (stereo not shown) [Oxyphenbutazone]
- Mtb Activity in vitro: MIC (Mtb [1]): MIC 10μg/ml
- Notes: activity in words (Mtb [1]; non-replicating TB): Active against non-replicating TB Metabolite active against replicating TB-screened ~5600 compounds

SMILES: CN1C(=O)[C@]23CC4=CC=C[C@H](O)[C@H]4N2C(=O)[C@@]1(CO)SS3 [Gliotoxin]
- IC90 (Mtb [2]): 140 nM

SMILES: O=C(Nc1ccc(F)c(F)c1F)NC1C2CC3CC(C2)CC1C3 (stereo not shown) [AU1235]
- Mtb Activity in vitro: MIC (Mtb [3]): MIC 0.1μg/ml
